Values joined by “and” are separate entries in the source; they are usually repeats but may differ in a detail not shown here. Identical values can stand only once.
Experiments:
LoVo/DOX cells [1] = experiment: Doxorubicin IC50 and IC20 evaluation on LoVo/DOX cells (MTT)
Experimental: (§6) For the LoVo/DOX cell line, the doxorubicin growth inhibition was determined by the MTT assay and the IC50 and IC20 values were determined. Approximately 10^4 cells/well were plated onto 96-well plates and allowed to attach for 24 h before treatment with a range of drug concentrations from 3 × 10^−11 to 3 × 10^−5 M for 3 days; each concentration was repeated four times. At the end of the incubation the cells were processed according to the MTT protocol [43] and the optical density of the chromogenic product was measured at 570 nm. IC50 and IC20 values were determined graphically from relative survival curves obtained by GraphPad Prism 5 software (GraphPad, San Diego, CA, USA).
(§7) The resistance index to doxorubicin of the two resistant cell lines was obtained from the ratio between the doxorubicin IC50 (µM) values on the resistant and parental lines.

LoVo cells = experiment: Doxorubicin IC50 on parental LoVo cells (MTT); settings: Homo sapiens, 72 h, read-out: doxorubicin IC50
Experimental: as §6, §7

K562/DOX cells [2] = experiment: Enhancement of doxorubicin cytotoxicity on K562/DOX cells (MTT); type: cell-based, human; settings: 72 h
Experimental: (§1) To evaluate the enhancement of doxorubicin toxicity in the presence of the tested compounds, the cells, in exponential growth phase, were seeded at 10^4 cells/well and solutions of either compounds or doxorubicin, or a solution of doxorubicin in combination with the compounds, were added to the wells repeated in quadruplicate. […] The MTT working solution was then added and plates were further incubated for 3 h. Following incubation cells and formazan crystals were inspected microscopically. The supernatant was then carefully removed by slow aspiration and the formazan crystals were dissolved in […] of acidified isopropanol solution. The absorbance of the solution was then read on an automated plate reader at a wavelength of 570 nm. The increase in the toxicity of doxorubicin was quantified by the ratio between the growth of the cell sample treated with IC20 of doxorubicin and that of the cell sample treated with IC20 of doxorubicin in combination with the various concentrations of the tested compounds.

K562/DOX cells [3] = system: K562/DOX cells; set-up: method as in PMID 30947123; settings: cited from earlier work
LoVo/DOX cells [4] = experiment: Enhancement of doxorubicin cytotoxicity on LoVo/DOX cells (MTT); type: cell-based, human; settings: 72 h
Experimental: as §1

hCA I = molecular target: T1, hCA I (Homo sapiens, UniProt P00915); experiment: Stopped-flow CO2 hydrase assay, hCA I; type: biochemical; settings: mean from 3 assays
T1 construct: made in house
Experimental: (§2) An SX.18MV-R Applied Photophysics (Oxford, UK) stopped-flow instrument was used to assay the catalytic/inhibition of various CA isozymes. […] Saturated CO2 solutions in water at 25 °C were used as a substrate. Stock solutions of inhibitors were prepared at a concentration of 10 μM (in DMSO-water 1:1, v/v) and dilutions up to 0.01 nM done with the assay buffer mentioned above. […] Inhibitor and enzyme solutions were preincubated together for 10 min at room temperature prior to the assay, in order to allow for the formation of the E–I complex. […] The inhibition constants were obtained by non-linear least-squares methods using the Cheng–Prusoff equation, as reported earlier, and represent the mean from at least three different determinations. All CA isozymes used here were recombinant proteins obtained as reported earlier by our group.

hCA II = molecular target: T2, hCA II (Homo sapiens, UniProt P00918); experiment: Stopped-flow CO2 hydrase assay, hCA II; type: biochemical; settings: stopped flow, mean from 3 assays
T2 construct: made in house
Experimental: as §2

hCA IX = molecular target: T3, hCA IX (Homo sapiens, UniProt Q16790); experiment: Stopped-flow CO2 hydrase assay, hCA IX; type: biochemical; settings: stopped flow, mean from 3 assays
T3 construct: made in house
Experimental: as §2

P-gp [5] = molecular target: T4, P-gp (Homo sapiens, UniProt P08183); experiment: Rhodamine-123 uptake test on K562/DOX cells (flow cytometry); type: cell-based
T4 construct: doxorubicin resistant K562/DOX cell line overexpresses almost exclusively the transporter membrane protein P-gp; endogenous in cells; host or cells: K562/DOX (doxorubicin-selected human erythroleukemia cells)
Experimental: The results were expressed as the FR (fluorescence ratio), which is the ratio between the average fluorescence intensity of rhodamine in the presence and in the absence of modulators. Value 1 was attributed to the average fluorescence intensity of the samples exposed only to rhodamine.
(§3) An aliquot of cells (control) was incubated with the fluorochrome in the absence of inhibitors.
(§4) At the end of the uptake, cells were sedimented, washed twice in ice-cold PBS, placed in PBS on ice, and kept in the dark until flow cytometric analysis.
(§5) The histograms were generated by program GraphPad Prism 5 (GraphPad Prism software, Inc., San Diego, CA, USA); the data were obtained from the ratio between the average fluorescence intensity of the samples preincubated with the compounds under study and subsequently exposed to rhodamine, and the fluorescence of the sample exposed only to the rhodamine.

P-gp [6] = molecular target: T4, P-gp; experiment: Rhodamine-123 uptake test on LoVo/DOX cells (flow cytometry); type: cell-based; settings: compound 10 µM
Experimental: The selected compounds were preliminary studied at 3, 10 and 30 µM concentrations by the MTT (3-(4,5-dimethylthiazolyl-2)-2,5-diphenyltetrazolium bromide) assay to evaluate their intrinsic cytotoxicity on LoVo/DOX cell line.
as §3, §4, §5

hCA XII = molecular target: T5, hCA XII (Homo sapiens, UniProt O43570); experiment: Stopped-flow CO2 hydrase assay, hCA XII; type: biochemical; settings: stopped flow, mean from 3 assays
T5 construct: made in house
Experimental: as §2

T4 sequence (P08183 whole entry): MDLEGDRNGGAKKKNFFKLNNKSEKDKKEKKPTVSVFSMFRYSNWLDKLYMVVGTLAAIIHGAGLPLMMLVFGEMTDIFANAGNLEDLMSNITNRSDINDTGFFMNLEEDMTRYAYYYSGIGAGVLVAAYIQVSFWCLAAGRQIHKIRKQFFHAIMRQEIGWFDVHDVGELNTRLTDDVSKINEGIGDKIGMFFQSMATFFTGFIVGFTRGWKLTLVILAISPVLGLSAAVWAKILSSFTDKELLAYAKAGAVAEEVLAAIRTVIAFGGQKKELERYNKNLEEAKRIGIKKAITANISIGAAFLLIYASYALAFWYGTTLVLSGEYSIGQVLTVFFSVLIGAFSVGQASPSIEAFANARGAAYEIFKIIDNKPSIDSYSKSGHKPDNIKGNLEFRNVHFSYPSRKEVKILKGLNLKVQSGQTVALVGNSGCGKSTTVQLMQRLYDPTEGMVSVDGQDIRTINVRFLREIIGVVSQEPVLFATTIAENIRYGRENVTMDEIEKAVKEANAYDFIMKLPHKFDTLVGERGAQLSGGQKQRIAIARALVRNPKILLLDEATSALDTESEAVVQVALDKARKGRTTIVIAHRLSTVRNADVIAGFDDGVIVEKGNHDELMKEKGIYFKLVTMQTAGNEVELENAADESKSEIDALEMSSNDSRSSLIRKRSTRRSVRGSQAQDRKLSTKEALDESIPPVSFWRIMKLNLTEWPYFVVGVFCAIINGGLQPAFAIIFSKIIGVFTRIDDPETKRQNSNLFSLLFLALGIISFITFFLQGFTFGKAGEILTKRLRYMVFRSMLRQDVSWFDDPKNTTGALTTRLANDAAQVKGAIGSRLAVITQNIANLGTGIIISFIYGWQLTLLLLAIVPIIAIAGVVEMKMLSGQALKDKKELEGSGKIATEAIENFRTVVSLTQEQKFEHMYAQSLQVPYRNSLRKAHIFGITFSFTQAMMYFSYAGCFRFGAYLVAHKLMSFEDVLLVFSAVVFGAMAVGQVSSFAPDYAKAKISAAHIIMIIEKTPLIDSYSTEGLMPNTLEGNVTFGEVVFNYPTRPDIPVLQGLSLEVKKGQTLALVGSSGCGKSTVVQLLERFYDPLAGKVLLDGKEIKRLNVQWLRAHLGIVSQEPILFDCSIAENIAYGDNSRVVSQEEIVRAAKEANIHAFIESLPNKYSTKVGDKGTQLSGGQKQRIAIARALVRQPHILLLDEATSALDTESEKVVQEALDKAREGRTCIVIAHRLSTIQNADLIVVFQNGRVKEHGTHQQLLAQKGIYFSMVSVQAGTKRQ
T1 sequence (P00915 whole entry): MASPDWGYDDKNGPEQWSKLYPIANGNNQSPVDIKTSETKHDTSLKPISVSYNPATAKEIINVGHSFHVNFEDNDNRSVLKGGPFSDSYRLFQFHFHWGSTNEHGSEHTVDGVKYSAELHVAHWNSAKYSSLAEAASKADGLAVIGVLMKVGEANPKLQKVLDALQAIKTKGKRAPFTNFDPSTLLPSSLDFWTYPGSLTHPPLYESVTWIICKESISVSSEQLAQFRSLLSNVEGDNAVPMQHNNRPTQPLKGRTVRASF
T5 sequence (O43570 25-354): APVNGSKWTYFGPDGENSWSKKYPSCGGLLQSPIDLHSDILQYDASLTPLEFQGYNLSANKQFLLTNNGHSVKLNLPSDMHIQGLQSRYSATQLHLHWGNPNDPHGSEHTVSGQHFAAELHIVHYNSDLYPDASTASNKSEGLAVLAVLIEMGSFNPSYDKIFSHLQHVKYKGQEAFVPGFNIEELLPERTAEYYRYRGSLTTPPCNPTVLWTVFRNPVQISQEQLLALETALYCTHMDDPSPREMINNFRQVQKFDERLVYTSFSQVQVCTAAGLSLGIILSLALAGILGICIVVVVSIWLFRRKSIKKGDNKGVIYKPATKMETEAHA

SMILES	IC50 (LoVo/DOX cells [1]; Homo sapiens, LoVo, 72 h, read-out: doxorubicin IC50) [nM]	IC20 (LoVo/DOX cells [1]; Homo sapiens, LoVo, read-out: doxorubicin IC20) [nM]	resistance index to doxorubicin (IC50 resistant/parental) (LoVo/DOX cells [1]; LoVo/DOX vs LoVo)	IC50 (LoVo cells) [nM]	activity at 0.5 µM (K562/DOX cells [2]; Homo sapiens, doxorubicin 0.5 µM alone, read-out: Cell Growth (%)) [%]	IC50 (K562/DOX cells [3]; K562/DOX cells ref 38, read-out: doxorubicin IC50) [nM]	IC20 (K562/DOX cells [3]; K562/DOX cells, extrapolated from earlier cytotoxicity curves ref 38, read-out: doxorubicin IC20) [nM]	resistance index to doxorubicin (IC50 resistant/parental) (K562/DOX cells [3]; K562/DOX vs K562 ref 38)	activity at 0.3 µM (LoVo/DOX cells [4]; Homo sapiens, doxorubicin 0.3 µM alone, read-out: Cell Growth (%)) [%]	Ki (hCA I) [nM]	Ki (hCA II) [nM]	Ki (hCA IX) [nM]	FR (fluorescence ratio, Rhd 123 uptake with/without modulator) (P-gp [5]; compound 3 µM)	FR (fluorescence ratio, Rhd 123 uptake with/without modulator) (P-gp [5]; compound 30 µM)	FR (fluorescence ratio, Rhd 123 uptake) (P-gp [6])	Cell Growth (%) (K562/DOX cells [2]; doxorubicin 0.5 µM (IC20) + compound 3 µM)	Ki (hCA XII) [nM]	Cell Growth (%) (LoVo/DOX cells [4]; doxorubicin 0.3 µM (IC20) + compound 3 µM)	Cell Growth (%) (LoVo/DOX cells [4]; doxorubicin 0.3 µM (IC20) + compound 10 µM)
COc1cccc2c1C(=O)c1c(O)c3c(c(O)c1C2=O)C[C@@](O)(C(=O)CO)C[C@@H]3O[C@H]1C[C@H](N)[C@H](O)[C@H](C)O1 [doxo, doxorubicin]	850 ± 84	300	13.5	63 ± 6.6	80 ± 3.6	2470 ± 250	500	73	80 ± 2.5	–	–	–	–	–	–	–	–	–	–
COc1cc(/C=C/C(=O)OCCCCCCCN(C)CCOC(=O)COc2ccc3ccc(=O)oc3c2)cc(OC)c1OC [Compound 7, (E)-7-(methyl(2-(2-((2-oxo-2H-chromen-7-yl)oxy)acetoxy)ethyl)amino)heptyl 3-(3,4,5-trimethoxyphenyl)acrylate]	–	–	–	–	–	–	–	–	–	> 10000	> 10000	29.7	2.08	4.48	12.60	78.1 ± 4.9	9.1	61.0% and 61.0 ± 3.3%	34.9% and 34.9 ± 8.1%
